Data as given in US11364248B2 (AMGEN INC., priority 2017, dated 2022).
pIC50: −log10 of the molar value.

Assays:
[1] = biological target: Mcl-1/Bim interaction (Homo sapiens (Human), UniProt Q07820); test: Cell Free Mcl-1: Bim Affinity Assay (Mcl-1 HTRF); format: binding; conditions: TR-FRET, recombinant human Mcl-1(171-327), biotin-Bim(51-76); read-out: Mel-1 HTRF IC50
Outline: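 TR-FRET competition assay: 0.1 nM His-tagged human Mcl-1(171-327) and 0.05 nM biotin-Bim(51-76) were pre-incubated 60 min with compound in 20 mM Hepes pH 7.5, 150 mM NaCl, Brij35, 1 mM DTT, then with Eu-anti-His/streptavidin-Xlent overnight. The 665/620 nm ratio was fitted by four-parameter model to IC50 (duplicates).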

[2] = system: OPM-2; test: Cell Viability Assay (OPM-2 10 FBS); format: cell-based, human; conditions: OPM-2 cells, 16 h, CellTiter-Glo, read-out: OPM-2 10% FBS IC50 IP
Outline: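 OPM-2 myeloma cells seeded at 3000 cells/well in RPMI 1640 with 10% FBS and exposed to serially diluted compounds for 16 h at 37° C., 5% CO2.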

Sequence of Mcl-1/Bim interaction (Q07820 171-327): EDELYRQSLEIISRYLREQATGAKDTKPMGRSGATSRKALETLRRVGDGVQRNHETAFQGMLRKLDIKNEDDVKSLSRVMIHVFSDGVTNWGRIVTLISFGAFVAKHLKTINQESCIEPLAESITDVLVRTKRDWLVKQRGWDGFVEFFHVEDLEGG

Compound | pIC50 [1] | pIC50 [2]
C[C@@H]1CC[C@H]([C@H]2OC[C@@H](N(C)C)CO2)[C@@H]2CC[C@H]2CN2C[C@@]3(CCCc4cc(Cl)ccc43)COc3ccc(cc32)C(=O)NS(=O)(=O)C[C@@H]1C [Example 75, (1S,3′R,6′R,7′S,10′R,11′R)-6-chloro-7′-(cis-5-(dimethylamino)-1,3-dioxan-2-yl)-10′,11′-dimethyl-3,4-dihydro-2H,15′H-spiro[naphthalene-1,22′-[20]oxa[13]thia[1,14]diazatetracyclo [14.7.2.0~3,6~.0~19,24~]pentacosa[16,18,24]trien]-15′-one 13′,13′-dioxide] | 7.89 | 5.17
C[C@@H]1CC[C@H]([C@H]2OC[C@@H](N(C)C)CO2)[C@@H]2CC[C@H]2CN2C[C@@]3(CCCc4cc(Cl)ccc43)COc3ccc(cc32)C(=O)NS(=O)(=O)C[C@@H]1C [Example 76, (1S,3′R,6′R,7′S,10′R,11′R)-6-chloro-7′-(cis-5-(dimethylamino)-1,3-dioxan-2-yl)-10′,11′-dimethyl-3,4-dihydro-2H,15′H-spiro[naphthalene-1,22′-[20]oxa[13]thia[1,14]diazatetracyclo [14.7.2.0~3,6~.0~19,24~]pentacosa[16,18,24]trien]-15′-one 13′,13′-dioxide] | 8.21 | 5.61
C[C@@H]1[C@@H](C)CCC[C@H]([C@H]2OC[C@](N)(CO)CO2)[C@@H]2CC[C@H]2CN2C[C@@]3(CCCc4cc(Cl)ccc43)COc3ccc(cc32)C(=O)NS1(=O)=O [Example 79, (1S,3′R,6′R,7′S,11′S,12′R)-7′-(cis-5-amino-5-(hydroxymethyl)-1,3-dioxan-2-yl)-6-chloro-11′,12′-dimethyl-3,4-dihydro-2H,15′H-spiro[naphthalene-1,22′-[20]oxa[13]thia[1,14]diazatetracyclo [14.7.2.0~3,6~.0~19,24~]pentacosa[16,18,24]trien]-15′-one 13′,13′-dioxide] | 9.15 | 6.08
COC[C@H]1[C@@H](C)CCC[C@H]([C@H]2OC[C@@H](N(C)C)CO2)[C@@H]2CC[C@H]2CN2C[C@@]3(CCCc4cc(Cl)ccc43)COc3ccc(cc32)C(=O)NS1(=O)=O [Example 87, (1S,3′R,6′R,7′S,11′S,12′R)-6-chloro-7′-(cis-5-(dimethylamino)-1,3-dioxan-2-yl)-12′-(methoxymethyl)-11′-methyl-3,4-dihydro-2H,15′H-spiro[naphthalene-1,22′-[20]oxa[13]thia[1,14]diazatetracyclo [14.7.2.0~3,6~.0~19,24~]pentacosa[16,18,24]trien]-15′-one 13′,13′-dioxide] | 8.24 | 6.13

Continued, in another order:

pIC50 [1] | Compound | pIC50 [2]
9.27 | C[C@@H]1[C@@H](C)CCC[C@H]([C@H]2OC[C@@H](N(C)C3CC3)CO2)[C@@H]2CC[C@H]2CN2C[C@@]3(CCCc4cc(Cl)ccc43)COc3ccc(cc32)C(=O)NS1(=O)=O [Example 69, (1S,3′R,6′R,7′S,11′S,12′R)-6-chloro-7′-(cis-5-(cyclopropyl(methyl)amino)-1,3-dioxan-2-yl)-11′,12′-dimethyl-3,4-dihydro-2H,15′H-spiro[naphthalene-1,22′-[20]oxa[13]thia[1,14]diazatetracyclo [14.7.2.0~3,6~.0~19,24~]pentacosa[16,18,24]trien]-15′-one 13′,13′-dioxide] | 6.38
8.88 | C[C@@H]1[C@@H](C)CCC[C@H]([C@H]2OC[C@@H](N(C)C3CC3)CO2)[C@@H]2CC[C@H]2CN2C[C@@]3(CCCc4cc(Cl)ccc43)COc3ccc(cc32)C(=O)NS1(=O)=O [Example 70, (1S,3′R,6′R,7′S,11′S,12′R)-6-chloro-7′-(cis-5-(cyclopropyl(methyl)amino)-1,3-dioxan-2-yl)-11′,12′-dimethyl-3,4-dihydro-2H,15′H-spiro[naphthalene-1,22′-[20]oxa[13]thia[1,14]diazatetracyclo [14.7.2.0~3,6~.0~19,24~]pentacosa[16,18,24]trien]-15′-one 13′,13′-dioxide] | 5.80
9.66 | COCCN(C)[C@H]1CO[C@@H]([C@H]2CCC[C@H](C)[C@@H](C)S(=O)(=O)NC(=O)c3ccc4c(c3)N(C[C@@H]3CC[C@H]32)C[C@@]2(CCCc3cc(Cl)ccc32)CO4)OC1 [Example 71, (1S,3′R,6′R,7′S,11′S,12′R)-6-chloro-7′-(cis-5-((2-methoxyethyl)(methyl)amino)-1,3-dioxan-2-yl)-11′,12′-dimethyl-3,4-dihydro-2H,15′H-spiro[naphthalene-1,22′-[20]oxa[13]thia[1,14]diazatetracyclo [14.7.2.0~3,6~.0~19,24~]pentacosa[16,18,24]trien]-15′-one 13′,13′-dioxide] | 7.05
9.25 | COCCN(C)[C@H]1CO[C@@H]([C@H]2CCC[C@H](C)[C@@H](C)S(=O)(=O)NC(=O)c3ccc4c(c3)N(C[C@@H]3CC[C@H]32)C[C@@]2(CCCc3cc(Cl)ccc32)CO4)OC1 [Example 72, (1S,3′R,6′R,7′S,11′S,12′R)-6-chloro-7′-(cis-5-((2-methoxyethyl)(methyl)amino)-1,3-dioxan-2-yl)-11′,12′-dimethyl-3,4-dihydro-2H,15′H-spiro[naphthalene-1,22′-[20]oxa[13]thia[1,14]diazatetracyclo [14.7.2.0~3,6~.0~19,24~]pentacosa[16,18,24]trien]-15′-one 13′,13′-dioxide] | 6.47
8.36 | COC[C@H]1[C@@H](C)CCC[C@H]([C@H]2OC[C@@H](N(C)C)CO2)[C@@H]2CC[C@H]2CN2C[C@@]3(CCCc4cc(Cl)ccc43)COc3ccc(cc32)C(=O)NS1(=O)=O [Example 88, (1S,3′R,6′R,7′S,11′S,12′R)-6-chloro-7′-(cis-5-(dimethylamino)-1,3-dioxan-2-yl)-12′-(methoxymethyl)-11′-methyl-3,4-dihydro-2H,15′H-spiro[naphthalene-1,22′-[20]oxa[13]thia[1,14]diazatetracyclo [14.7.2.0~3,6~.0~19,24~]pentacosa[16,18,24]trien]-15′-one 13′,13′-dioxide] | 6.47
